The record followed here is PubChem BioAssay (NCI).

As usually defined, the TGI is the concentration giving total growth inhibition. Low values mean greater sensitivity of the cells, high ones lower sensitivity of the cells.

Assay in all cases: DTP human tumour cell line panel, 48 h
The subject of test [1] is COLO 205 colon.
Test [2] deals with DU-145 prostate.
The test system of test [3] is EKVX NSCLC.
For test [4], the system named is HCC-2998 colon.
The subject of test [5] is IGROV1 ovarian.
The subject of test [6] is K-562 leukemia.
Test [7] concerns NCI-H226 lung.
The subject of test [8] is NCI-H23 lung.
Test [9] relates to NCI-H460 lung.
The subject of test [10] is NCI/ADR-RES ovarian.
In test [11] the test system is RPMI-8226 leukemia.
Test [12] deals with SF-539 CNS.
Test [13] relates to SNB-75 CNS.
Test [14] deals with TK-10 renal.
For test [15], the system named is UACC-257 melanoma.
For test [16], the system named is UACC-62 melanoma.
Test [17] concerns UO-31 renal.

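Values below derive from 48-hour exposures of cells grown in 96-well plates, with endpoints linearly interpolated between the two concentrations bracketing the appropriate inhibition level. Definition used: TGI = concentration required for complete inhibition of growth.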 Where a SMILES comes first, the peptide text is derived from it. [ ]: non-standard residue; d: D form. The star is where a group is joined. NMeV = CN[C@H](C(=O)O)C(C)C; X29 = COc1ccc(CN*)c(OC)c1; Octanoyl = CCCCCCCC(=O)*; dNMeA = CN[C@H](C)C(=O)O

As for `CCCCCCCC(=O)N[C@H](C(=O)N[C@H](C(=O)N(C)[C@H](C(=O)N1CCC[C@H]1C(=O)N(C)[C@H](C)C(=O)NCc1ccc(OC)cc1OC)C(C)C)C(C)C)C(C)C` (Octanoyl-VV[NMeV]P[dNMeA]-X29), the TGI in test [1] is 22.7 µM; in [2], > 100 µM; in test [3] it was 97.3 µM; in test [4] it was > 100 µM; in test [5] it was 32.8 µM; in test [6], > 100 µM. In addition, the TGI is 27.5 µM in [7]; > 82.4 µM in [8]; > 100 µM in [9]; > 100 µM in test [10]; > 26.3 µM in [11]; > 60.4 µM in test [12]. For the same compound, the TGI is > 100 µM in [13]; > 100 µM in test [14]; 60.7 µM in test [15]; 23.7 µM in [16]; > 100 µM in [17].
As to `COc1cc2c(cc1OC)C1C=NC(C2)c2cc(OC)c(OC)cc21` (stereo not given), the TGI in test [1], in test [2], in test [3], in [4], in test [5] and in test [6] was > 100 µM each time. The TGI in [7], in test [9], in [10], in [11], in [12] and in test [13] was > 100 µM each time. Also, the TGI in test [14], in [15], in test [16] and in test [17] was > 100 µM throughout.
As to `C[C@]12CC[C@@H]3c4cc(OCC(F)(F)F)c(O)cc4CC[C@H]3[C@@H]1CC[C@@H]2O`, the TGI in test [1] was 28.2 µM; in test [2], 29.4 µM; in test [3], 30.7 µM; in test [4], 16.9 µM; in test [5], 23.8 µM; in test [6], 13.5 µM. Further, the concentration for total growth inhibition (TGI) in test [7] worked out at 24.7 µM; in test [8], 19.3 µM; in test [9] it was 15.5 µM; in [10], 36.8 µM; in test [11], 23.1 µM; in [12], 7.27 µM. Besides, the TGI in test [13] is 13.2 µM; in test [14], 40.4 µM; in [15], 21.4 µM; in test [16] it was 17.3 µM; in [17] it was 22.3 µM.
With `Cc1ccc(NC(Nc2ccc(C)cc2C)=C(/C=C(\Cl)[N+](=O)[O-])[N+](=O)[O-])c(C)c1`, the TGI in test [1] stood at 4.99 µM; in test [2], 33.2 µM; in [3], 32.3 µM; in test [4] it was 38.4 µM; in test [5], 20.9 µM; in test [6], 3.75 µM. Also, the TGI in [7] was 22.1 µM; in [8], 20.8 µM; in [9], 36.7 µM; in test [10] it was 48.8 µM; in test [11] it was 4.36 µM; in test [12], 23.3 µM. Further, the TGI came out at 16.4 µM in test [13]; 13.2 µM in test [14]; 13.1 µM in test [15]; 10 µM in test [16]; 19.2 µM in test [17].
With `CC1CC(C)C(C#N)N(C)c2ccccc21` (stereo not given), the TGI in test [1], in test [2], in [3], in test [4], in [5] and in [6] was > 100 µM each time. Besides, the TGI in [7], in test [8], in test [9], in test [10], in [11] and in test [12] was > 100 µM in each case. For the same compound, the TGI in test [13], in test [14], in [15], in test [16] and in [17] was > 100 µM in each case.
On to `O=C(CCCN1CCC2(CC1)CC(c1ccccc1)OC2=O)c1ccc(F)cc1` (stereo not given), for which the TGI was 35.4 µM in test [1]; > 100 µM in [2]; > 100 µM in test [3]; 73.2 µM in test [4]; > 100 µM in test [5]; 65.8 µM in test [6]. In addition, the TGI in test [7] is > 100 µM; in test [8], > 100 µM; in [9], > 100 µM; in test [10], > 100 µM; in test [11] it was 51.3 µM; in [12] it was 53.1 µM. In addition, the TGI was 54.2 µM in test [13]; > 100 µM in test [14]; 52.1 µM in test [15]; 61.9 µM in test [16]; > 100 µM in [17].
Regarding `Oc1ccc(-c2cc(-c3cc(-c4ccc(O)cc4)no3)on2)cc1`, the TGI in test [1], in [2], in test [3], in test [4], in test [5] and in test [6] was > 100 µM each time. For the same compound, the TGI in [7] was > 100 µM; in test [8] it was > 100 µM; in test [9] it was > 100 µM; in [10], > 100 µM; in [11], > 100 µM; in test [12] it was > 49.7 µM. Besides, the TGI in test [13] is > 100 µM; in test [14], > 100 µM; in test [15], > 31.1 µM; in test [16], > 100 µM; in test [17] it was > 100 µM.
As to `CO/C(=N\N=C\c1ccc(OC)c(OC)c1)c1ccncc1`, the TGI in test [1], in [2], in test [3], in [4], in test [5] and in test [6] was > 10 µM throughout. The TGI in [7], in test [8], in test [9], in test [10], in test [11] and in test [12] was > 10 µM throughout. Also, the TGI in [13], in [14], in test [15], in test [16] and in test [17] was > 10 µM throughout.
